Reference: patent publication US10676514B2, “CDCA1-derived peptide and vaccine containing same” (ONCOTHERAPY SCIENCE, INC., priority 2014, dated 2020)
“Also recorded” adds a separate entry of the source.

Assays:
[1] = system: peptide-pulsed C1R-A11 cells; assay: IFN-gamma ELISPOT assay of peptide-induced CTLs (HLA-A*1101); type: cell-based, human; details: CTLs induced from HLA-A*1101-positive donors, peptide-pulsed C1R-A11 vs control
Method in brief: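 CD8+ T cells from HLA-A*1101-positive healthy donors stimulated three times (days 0, 7, 14) with autologous monocyte-derived DCs pulsed with 20 μg/ml peptide, with IL-7 and IL-2. On day 21, CTL lines and clones tested by IFN-γ ELISPOT against peptide-pulsed C1R-A11 stimulators (1×10^4 cells/well).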

[2] = system: peptide-pulsed C1R-A11; assay: IFN-gamma ELISA of CTL lines and CTL clones (HLA-A*1101); type: cell-based, human; details: for IFN-gamma production of CTL clones: CTL clones by limiting dilution
Procedure: CTLs were propagated in culture using methods similar to those disclosed by Riddell et al. (Walter E A et al., N Engl J Med 1995, 333(16): 1038-44; Riddell S R et al., Nat Med 1996, 2(2): 216-23). The CTLs were co-cultured in a total of 25 ml AIM-V medium containing 5% AS (AIM-V/5% AS) and 40 ng/ml anti-CD3 antibody with two types of Mitomycin C-treated human B lymphoblastoid cell lines at 5×10^6 cells/flask. One day after beginning of the culturing, 120 IU/ml IL-2 was added to the culture. On days 5, 8 and 11, a fresh AIM-V/5% AS medium containing 30 IU/ml IL-2 was added to the culture (Tanaka H et al., Br J Cancer 2001, 84(1): 94-9; Umano Y et al., Br J Cancer 2001, 84(8): 1052-7; Uchida N et al., Clin Cancer Res 2004, 10(24): 8577-86; Suda T et al., Cancer Sci 2006, 97(5): 411-9; Watanabe T et al., Cancer Sci 2005, 96(8): 498-506).
Dilution of CTLs was carried out to make 0.3, 1 and 3 cells/well in 96 round-bottomed microtiter plates (Nalge Nunc International). The CTLs were co-cultured with two types of Mitomycin C-treated human B lymphoblastoid cell lines at 1×10^4 cells/well in a total of 150 micro-l/well AIM-V/5% AS medium with 30 ng/ml anti-CD3 antibody and 125 IU/ml IL-2. Ten days later, IL-2 was added to the medium at 50 micro-l/well to reach a final concentration of 125 IU/ml. On day 14, the CTL activity was tested, and the CTL clones were propagated using the same method as described above (Uchida N et al., Clin Cancer Res 2004, 10(24): 8577-86; Suda T et al., Cancer Sci 2006, 97(5): 411-9; Watanabe T et al., Cancer Sci 2005, 96(8): 498-506).
Specifically, peptide-pulsed C1R-A11 (1×10^4 cells/well) was prepared as the stimulator cell. The induced CTLs, i.e., CTL lines and CTL clones, were used as the responder cell. The IFN-gamma ELISPOT assay and IFN-gamma ELISA were performed according to the manufacturer's manual.

[3] = system: COS7 cells transfected with CDCA1 and HLA-A*1101; assay: Specific CTL activity against target cells expressing CDCA1 and HLA-A*1101; type: cell-based, African green monkey; details: listed as CDCA1-A11-9-219
Excerpt: A cDNA encoding the open-reading frame of a target gene or HLA-A*1101 was amplified by PCR. The PCR-amplified product was cloned into an expression vector. Either or both of the target gene-expressing vector and the HLA-A*1101-expressing vector were transfected into COS7, which is a cell line negative for the target gene and HLA, using Lipofectamine 2000 (Invitrogen) following the manufacturer's recommended protocol. Two days after transfection, the transfected cells were harvested using versene (Invitrogen), and used as the target cell for CTL activity assay (5×10^4 cells/well).
The CTL clone established against CDCA-A11-9-219 (SEQ ID NO: 7) was investigated for its ability to recognize target cells expressing CDCA1 and the HLA-A*1101 molecule. COS7 cells transfected with both full-length CDCA1 and the HLA-A*1101 gene (a specific model of target cells expressing CDCA1 and the HLA-A*1101 gene) were prepared as the target cell. COS7 cells transfected with either full-length CDCA1 or HLA-A*1101 were prepared as the control.

Sequence	peptide-specific CTL activity (IFN-gamma production) ([1]; listed as CDCA1-A11-10-400)	IFN-gamma production of CTL clones ([2]; peptide-pulsed C1R-A11, listed as CDCA1-A1-9-219)	IFN-gamma production of CTL clones ([2]; peptide-pulsed C1R-A11, listed as CDCA1-A11-9-219)	IFN-gamma production of CTL lines ([2]; CTL lines, peptide-pulsed vs non-pulsed target cells, HLA-A*1101)	peptide-specific CTL activity (IFN-gamma production) ([1]; listed as CDCA1-A11-9-219)	specific CTL activity of CTL clone ([3]; COS7 cells transfected with both CDCA1 and HLA-A*1101)	specific CTL activity of CTL clone against control cells ([3]; COS7 cells transfected with either full-length CDCA1 or HLA-A*1101)
KIKLGIQQLK (a peptide derived from CDCA1) [SEQ ID NO: 38]	potent IFN-gamma production; also recorded: significant specific CTL activity	–	–	–	–	–	–
KTKRLNELK (a peptide derived from CDCA1) [SEQ ID NO: 7]	–	potent IFN-gamma production	Potent IFN-gamma production	potent IFN-gamma production	potent IFN-gamma production; also recorded: significant specific CTL activity	specific CTL activity; also recorded: potent CTL activity	a significant specific CTL activity was not shown; also recorded: a significant specific CTL activity was not detected
